Consider 17 compounds from patent US11685714B2, “Prodrugs of cytotoxic active agents having enzymatically cleavable groups” (BAYER PHARMA AKTIENGESELLSCHAFT, priority 2016, dated 2023).

What all share (type): cell-based
In experiment [1] the test system is KPL4: human breast cancer cell line. The experiment can be described thus: MTT assay on KPL4. As to conditions: 96 h incubation. The procedure: (§1) The analysis of the cytotoxic effects of the ADCs was carried out with various cell lines:
(§2) The cells were cultivated by the standard method as stated by the American Tissue Culture Collection (ATCC) or the Leibniz-lnstitut DSMZ-Deutsche Sammlung von Mikroorganismen und Zellkulturen GmbH (DSMZ) for the cell lines in question.
(§3) The cells were then incubated in an incubator at 37° C. and 5% carbon dioxide. […] To this end, the MTT reagent was incubated with the cells for 4 h, followed by lysis of the cells overnight by addition of the detergent. […] The measured data were used to calculate the ICo50 of the growth inhibition using the DRC (dose response curve). The proliferation of cells which were not treated with test substance but were otherwise identically treated was defined as the 100% figure.

For experiment [2], the system named is SK-HEP-1: human liver cell cancer line. The experiment can be described thus: MTT assay on SK-HEP-1. As to conditions: SK-HEP1, 96 h, growth inhibition, 96 h incubation. The procedure: as §1, §2, §3
For orientation: Formazan colour is commonly taken as a measure of viable cells.

Experiment [3] has as its system NCI-H292: human mucoepidermoid lung carcinoma cells. The experiment can be described thus: MTT assay on NCI-H292. As to conditions: 96 h incubation. The procedure: as §1, §2, §3
[4] abbreviates: NCI-H292, 96 h, growth inhibition.

Broadly, the IC50 is the concentration needed to halve the response being measured. High values mean a need for much substance, low ones inhibition by little substance.

Where a name gives a salt, the structure may show the parent alone.

For the compound `CC(C)(C)[C@H](c1cc(-c2cc(F)ccc2F)cn1Cc1ccccc1)N(CC[C@H](N)C(=O)NCCNC(=O)CNC(=O)CC(SC[C@H](N)C(=O)O)C(=O)O)C(=O)CO` (single isomer, unassigned) [Example M13], the IC50 turned out to be 169 nM in experiment [1] (KPL4, 96 h, growth inhibition); 68.1 nM in experiment [2]; 152 nM in experiment [3] (setting [4]).
For `CC(C)(C)[C@H](c1cc(-c2cc(F)ccc2F)cn1Cc1ccccc1)N(CC[C@H](N)C(=O)NCCNC(=O)CNC(=O)CC(SC[C@H](N)C(=O)O)C(=O)O)C(=O)CO` (single isomer, unassigned) [Example M14], the IC50 in experiment [1] (KPL4, 96 h, growth inhibition) worked out at 177 nM; in experiment [2], 94.3 nM; in experiment [3] (setting [4]) it was 174 nM.
In the case of `CC(C)(C)[C@H](c1cc(-c2cc(F)ccc2F)cn1Cc1ccccc1)N(CC[C@H](N)C(=O)NCCNC(=O)CNC(=O)C(CC(=O)O)SC[C@H](N)C(=O)O)C(=O)CO` (single isomer, unassigned) [Example M15], the IC50 was found to be 169 nM in experiment [1] (KPL4, 96 h, growth inhibition); 49.8 nM in experiment [2]; 133 nM in experiment [3] (setting [4]).
On to `CC(C)(C)[C@H](c1cc(-c2cc(F)ccc2F)cn1Cc1ccccc1)N(CC[C@H](N)C(=O)NCCNC(=O)CN1C(=O)CC(SC[C@H](N)C(=O)O)C1=O)C(=O)CO` (stereo partly drawn) [Example M1, S-[1-(2-{[2-({(2S)-2-Amino-4-[{(1R)-1-[1-benzyl-4-(2,5-difluorophenyl)-1H-pyrrol-2-yl]-2,2-dimethylpropyl}(glycoloyl)amino]butanoyl}amino)ethyl]amino}-2-oxoethyl)-2,5-dioxopyrrolidin-3-yl]-L-cysteine/trifluoroacetic acid (1:1)], for which the IC50 in experiment [1] (KPL4, 96 h, growth inhibition) was found to be 500 nM; in experiment [3] (setting [4]) it was 500 nM.
As to `CC(C)(C)[C@H](c1cc(-c2cc(F)ccc2F)cn1Cc1ccccc1)N(CC[C@H](N)C(=O)NCCOCCN1C(=O)CC(SC[C@H](N)C(=O)O)C1=O)C(=O)CO` (stereo partly drawn) [Example M4, S-(1-{2-[2-({(2S)-2-Amino-4-[{(1R)-1-[1-benzyl-4-(2,5-difluorophenyl)-1H-pyrrol-2-yl]-2,2-dimethylpropyl}(glycoloyl)amino]butanoyl}amino)ethoxy]ethyl}-2,5-dioxopyrrolidin-3-yl)-L-cysteine/trifluoroacetic acid (1:1)], the IC50 in experiment [1] (KPL4, 96 h, growth inhibition) was 176 nM; in experiment [2], 34.5 nM; in experiment [3] (setting [4]) it was 44.3 nM.
With `CC(C)(C)[C@H](c1cc(-c2cc(F)ccc2F)cn1Cc1ccccc1)N(CC[C@H](N)C(=O)NCCNC(=O)CSC[C@H](N)C(=O)O)C(=O)CO` [Example M7, S-(2-{[2-({(2S)-2-Amino-4-[{(1R)-1-[1-benzyl-4-(2,5-difluorophenyl)-1H-pyrrol-2-yl]-2,2-dimethylpropyl}(glycoloyl)amino]butanoyl}amino)ethyl]amino}-2-oxoethyl)-L-cysteine/trifluoroacetic acid (1:1)], the IC50 came out at 92.3 nM in experiment [1] (KPL4, 96 h, growth inhibition) and 21.2 nM in experiment [3] (setting [4]).
`CC(C)(C)[C@H](c1cc(-c2cc(F)ccc2F)cn1Cc1ccccc1)N(CC[C@H](N)C(=O)NCCNC(=O)CNC(=O)CC1SC[C@@H](C(=O)O)NC1=O)C(=O)CO` (stereo partly drawn) [Example M08, (3R)-6-{(11 S,15R)-11-Amino-15-[1-benzyl-4-(2,5-difluorophenyl)-1H-pyrrol-2-yl]-14-glycoloyl-16,16-dimethyl-2,5,10-trioxo-3,6,9,14-tetraazaheptadec-1-yl}-5-oxothiomorpholine-3-carboxylic acid/trifluoroacetic acid (1:1)] gave an IC50 in experiment [1] (KPL4, 96 h, growth inhibition) of 487 nM.
For `CC(C)(C)[C@H](c1cc(-c2cc(F)ccc2F)cn1Cc1ccccc1)N(CCCN)C(=O)CO` [Example M9, N-(3-Aminopropyl)-N-{(1R)-1-[1-benzyl-4-(2,5-difluorophenyl)-1H-pyrrol-2-yl]-2,2-dimethylpropyl}-2-hydroxyacetamide], the half-inhibitory concentration (IC50) in experiment [1] (KPL4, growth inhibition) came out at 0.514 nM; in experiment [3] (NCI-H292, growth inhibition) it was 0.27 nM.
Turning to `CC(C)(C)[C@H](c1cc(-c2cc(F)ccc2F)cn1Cc1ccccc1)N(CCCN)C(=O)CSC[C@H](N)C(=O)O` [Example M11, S-{2-[(3-Aminopropyl){(1R)-1-[1-benzyl-4-(2,5-difluorophenyl)-1H-pyrrol-2-yl]-2,2-dimethylpropyl}amino]-2-oxoethyl}-L-cysteine/trifluoroacetic acid (1:2)], the IC50 is 0.189 nM in experiment [2] and 0.0432 nM in experiment [3] (setting [4]).
Taken in the same sequence, the figures for `CC(C)(C)[C@H](c1cc(-c2cc(F)ccc2F)cn1Cc1ccccc1)N(CCCN)C(=O)CSC[C@H](NC(=O)CCC(=O)O)C(=O)O` [Example M12, 4-{[(1R)-2-({2-[(3-Aminopropyl){(1R)-1-[1-benzyl-4-(2,5-difluorophenyl)-1H-pyrrol-2-yl]-2,2-dimethylpropyl}amino]-2-oxoethyl}sulphanyl)-1-carboxyethyl]amino}-4-oxobutanoic acid/trifluoroacetic acid (1:1)] were 21.1 nM and 33 nM.
In the case of `CC(C)(C)[C@H](c1cc(-c2cc(F)ccc2F)cn1Cc1ccccc1)N(CC[C@H](N)C(=O)O)C(=O)CO` [Example M17, (2S)-2-Amino-4-[{(1R)-1-[1-benzyl-4-(2,5-difluorophenyl)-1H-pyrrol-2-yl]-2,2-dimethylpropyl}(glycoloyl)amino]butanoic acid hydrochloride (1:1)], in experiment [3] (setting [4]), the IC50 was determined as 7.35 nM.
Turning to `CC(C)(C)[C@H](c1cc(-c2cc(F)ccc2F)cn1Cc1ccccc1)N(CC[C@H](N)C(=O)NCCNC(=O)CC[C@H](N)C(=O)O)C(=O)CO` [Example M18, N-[2-({(2S)-2-Amino-4-[{(1R)-1-[1-benzyl-4-(2,5-difluorophenyl)-1H-pyrrol-2-yl]-2,2-dimethylpropyl}(glycoloyl)amino]butanoyl}amino)ethyl]-L-glutamine/trifluoroacetic acid (1:1)], in experiment [3] (setting [4]), 35.5 nM corresponded to half-maximal inhibition (IC50).
For the compound `CC(C)(C)[C@H](c1cc(-c2cc(F)ccc2F)cn1Cc1ccccc1)N(CC[C@H](N)C(=O)NCCC(=O)NCCCC[C@H](N)C(=O)O)C(=O)CO` [Example M19, N^6—(N-{(2S)-2-Amino-4-[{(1R)-1-[1-benzyl-4-(2,5-difluorophenyl)-1H-pyrrol-2-yl]-2,2-dimethylpropyl}(glycoloyl)amino]butanoyl}-beta-alanyl)-L-lysine/trifluoroacetic acid (1:1)], the IC50 in experiment [3] (setting [4]) is 121 nM.
For the compound `CC(C)(C)[C@H](c1cc(-c2cc(F)ccc2F)cn1Cc1ccccc1)N(CCCN)C(=O)CSC[C@H](NC(=O)CCOCCOCCOCCOCCNC(=O)CNC(=O)CC(SC[C@H](N)C(=O)O)C(=O)O)C(=O)O` (stereo partly drawn) [Example M20, (1R,4R,27R,33R)-1-Amino-32-(3-aminopropyl)-33-[1-benzyl-4-(2,5-difluorophenyl)-1H-pyrrol-2-yl]-34,34-dimethyl-6,9,25,31-tetraoxo-13,16,19,22-tetraoxa-3,29-dithia-7,10,26,32-tetraazapentatriacontane-1,4,27-tricarboxylic acid/trifluoroacetic acid (1:2)], the IC50 came to 213 nM in experiment [1] (KPL4, 96 h, growth inhibition); 181 nM in experiment [2]; 149 nM in experiment [3] (setting [4]).
As for `CC(C)(C)[C@H](c1cc(-c2cc(F)ccc2F)cn1Cc1ccccc1)N(CC[C@H](N)C(=O)NCCC(=O)N[C@@H](CCC(=O)O)C(=O)O)C(=O)CO` [Example M23, N-{(2S)-2-Amino-4-[{(1R)-1-[1-benzyl-4-(2,5-difluorophenyl)-1H-pyrrol-2-yl]-2,2-dimethylpropyl}(glycoloyl)amino]butanoyl}-beta-alanyl-L-glutamic acid/trifluoroacetic acid (1:1)], the IC50 worked out at 500 nM in experiment [1] (KPL4, 96 h, growth inhibition); 500 nM in experiment [2]; 500 nM in experiment [3] (setting [4]).
As for `CC(C)(C)[C@H](c1cc(-c2cc(F)ccc2F)cn1Cc1ccccc1)N(CC[C@H](N)C(=O)NCCC(=O)N[C@H](CCC(=O)O)C(=O)O)C(=O)CO` [Example M24, N-{(2S)-2-Amino-4-[{(1R)-1-[1-benzyl-4-(2,5-difluorophenyl)-1H-pyrrol-2-yl]-2,2-dimethylpropyl}(glycoloyl)amino]butanoyl}-beta-alanyl-D-glutamic acid/trifluoroacetic acid (1:1)], the IC50 in experiment [1] (KPL4, 96 h, growth inhibition) amounted to 500 nM; in experiment [2], 57.3 nM; in experiment [3] (setting [4]), 167 nM.
For `CC(C)(C)[C@H](c1cc(-c2cc(F)ccc2F)cn1Cc1ccccc1)N(CC[C@H](N)C(=O)NCCNC(=O)CNC(=O)C(CC(=O)O)SC[C@H](N)C(=O)O)C(=O)CO` (stereo partly drawn) [Example M27, 4-[(2-{[2-({(2S)-2-Amino-4-[{(1R)-1-[1-benzyl-4-(2,5-difluorophenyl)-1H-pyrrol-2-yl]-2,2-dimethylpropyl}(glycoloyl)amino]butanoyl}amino)ethyl]amino}-2-oxoethyl)amino]-3-{[(2R)-2-amino-2-carboxyethyl]sulphanyl}-4-oxobutanoic acid/trifluoroacetic acid (1:1)], the figures for the IC50 in experiment [2] and in experiment [3] (setting [4]) were 89 nM and 276 nM, respectively.
